Measurements published in patent US12077503B2, “Substituted cyclic amides and their use as herbicides” (FMC CORPORATION, priority 2015, dated 2024).

Legend:
Format in all cases: in vivo
[1] = tested on: corn (Zea mays); assay: Test G Post-Emergence Protocol; settings: Zea mays, post-emergence, 312 h, read-out: Corn damage rating
How it was run: (§1)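 Scores run 0 (no damage) to 100 (total damage) and were taken 13 days after spraying. Plants had been raised in pots for 8 days under glasshouse control (24/16 °C, 14 h photoperiod, 65% humidity) and then treated at 15.625, 62.5 or 250 g/ha.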

[2] = tested on: barnyardgrass (Echinochloa crus-galli); assay: Test G Post-Emergence Protocol; settings: Echinochloa crus-galli, post-emergence, 312 h, read-out: Barnyardgrass damage rating
How it was run: as §1

[3] = tested on: redroot pigweed (Amaranthus retroflexus); assay: Test G Post-Emergence Protocol; settings: Amaranthus retroflexus, post-emergence, 312 h, read-out: Pigweed, Redroot damage rating
How it was run: as §1

[4] = tested on: velvetleaf (Abutilon theophrasti); assay: Test G Post-Emergence Protocol; settings: Abutilon theophrasti, post-emergence, 312 h, read-out: Velvetleaf damage rating
How it was run: as §1

[5] = tested on: giant foxtail (Setaria faberi); assay: Test G Post-Emergence Protocol; settings: Setaria faberi, post-emergence, 312 h, read-out: Foxtail, Giant damage rating
How it was run: as §1

[6] = tested on: ivy-leaved morning glory (Ipomoea hederacea); assay: Test G Post-Emergence Protocol; settings: Ipomoea, post-emergence, 312 h, read-out: Morningglory, Ivy-leaved damage rating
How it was run: as §1

[7] = tested on: corn (Zea mays); assay: Test G Pre-Emergence Protocol; settings: Zea mays, pre-emergence, 312 h, evaluated after 13 days
How it was run: (§2)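 One day after sowing, pots are treated with a spray of test compound formulated in acetone/water 50:50 plus 0.5% Tween 20, giving 15.625, 62.5 or 250 g/ha. Evaluation on a 0–100 damage scale follows 13 days of glasshouse growth.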

[8] = tested on: barnyardgrass (Echinochloa crus-galli); assay: Test G Pre-Emergence Protocol; settings: Echinochloa crus-galli, pre-emergence, 312 h, evaluated after 13 days
How it was run: as §2

[9] = tested on: redroot pigweed (Amaranthus retroflexus); assay: Test G Pre-Emergence Protocol; settings: Amaranthus retroflexus, pre-emergence, 312 h, evaluated after 13 days
How it was run: as §2

[10] = tested on: velvetleaf (Abutilon theophrasti); assay: Test G Pre-Emergence Protocol; settings: Abutilon theophrasti, pre-emergence, 312 h, evaluated after 13 days
How it was run: as §2

[11] = tested on: giant foxtail (Setaria faberi); assay: Test G Pre-Emergence Protocol; settings: Setaria faberi, pre-emergence, 312 h, evaluated after 13 days
How it was run: as §2

[12] = tested on: ivy-leaved morning glory (Ipomoea hederacea); assay: Test G Pre-Emergence Protocol; settings: Ipomoea, pre-emergence, 312 h, evaluated after 13 days
How it was run: as §2

[13] = 15.625 g ai/ha, evaluated after 13 days (100=total damage to plant; 0=no damage to plant)
[14] = 62.5 g ai/ha, evaluated after 13 days, 100=total damage to plant, 0=no damage to plant
[15] = 250 g ai/ha, evaluated after 13 days, 100=total damage to plant, 0=no damage to plant

CN1C[C@H](c2ccc(C(F)(F)F)cc2)[C@@H](C(=O)Nc2ccc3ncccc3n2)C1=O (racemic) [Compound 1833]
0%: plant injury at 15.625 g/ha [1, 13] | plant injury at 62.5 g/ha [1, 14] | plant injury at 250 g/ha [1, 15] | pest or weed control at 15.625 g/ha [2, 13] | pest or weed control at 62.5 g/ha [2, 14] | pest or weed control at 250 g/ha [2, 15] | pest or weed control at 15.625 g/ha [3, 13] | pest or weed control at 62.5 g/ha [3, 14] | pest or weed control at 250 g/ha [3, 15] | pest or weed control at 15.625 g/ha [4, 13] | pest or weed control at 62.5 g/ha [4, 14] | pest or weed control at 250 g/ha [4, 15] | pest or weed control at 15.625 g/ha [5, 13] | pest or weed control at 62.5 g/ha [5, 14] | pest or weed control at 250 g/ha [5, 15] | pest or weed control at 15.625 g/ha [6, 13] | pest or weed control at 62.5 g/ha [6, 14] | pest or weed control at 250 g/ha [6, 15] | plant injury at 15.625 g/ha ([7]; 15.625 g ai/ha, read-out: Corn damage rating (100=total damage to plant; 0=no damage to plant)) | plant injury at 62.5 g/ha ([7]; 62.5 g ai/ha, 100=total damage to plant, 0=no damage to plant, read-out: Corn damage rating) | plant injury at 250 g/ha ([7]; 250 g ai/ha, read-out: Corn damage rating (100=total damage to plant; 0=no damage to plant)) | pest or weed control at 15.625 g/ha ([8]; 15.625 g ai/ha, read-out: Barnyardgrass damage rating (100=total damage to plant; 0=no damage to plant)) | pest or weed control at 62.5 g/ha ([8]; 62.5 g ai/ha, 100=total damage to plant, 0=no damage to plant, read-out: Barnyardgrass damage rating) | pest or weed control at 250 g/ha ([8]; 250 g ai/ha, read-out: Barnyardgrass damage rating (100=total damage to plant; 0=no damage to plant)) | pest or weed control at 15.625 g/ha ([9]; 15.625 g ai/ha, read-out: Pigweed, Redroot damage rating (100=total damage to plant; 0=no damage to plant)) | pest or weed control at 62.5 g/ha ([9]; 62.5 g ai/ha, 100=total damage to plant, 0=no damage to plant, read-out: Pigweed, Redroot damage rating) | pest or weed control at 250 g/ha ([9]; 250 g ai/ha, read-out: Pigweed, Redroot damage rating (100=total damage to plant; 0=no damage to plant)) | pest or weed control at 15.625 g/ha ([10]; 15.625 g ai/ha, read-out: Velvetleaf damage rating (100=total damage to plant; 0=no damage to plant)) | pest or weed control at 62.5 g/ha ([10]; 62.5 g ai/ha, 100=total damage to plant, 0=no damage to plant, read-out: Velvetleaf damage rating) | pest or weed control at 250 g/ha ([10]; 250 g ai/ha, read-out: Velvetleaf damage rating (100=total damage to plant; 0=no damage to plant)) | pest or weed control at 15.625 g/ha ([11]; 15.625 g ai/ha, read-out: Foxtail, Giant damage rating (100=total damage to plant; 0=no damage to plant)) | pest or weed control at 62.5 g/ha ([11]; 62.5 g ai/ha, 100=total damage to plant, 0=no damage to plant, read-out: Foxtail, Giant damage rating) | pest or weed control at 250 g/ha ([11]; 250 g ai/ha, read-out: Foxtail, Giant damage rating (100=total damage to plant; 0=no damage to plant)) | pest or weed control at 15.625 g/ha ([12]; 15.625 g ai/ha, read-out: Morningglory, Ivy-leaved damage rating (100=total damage to plant; 0=no damage to plant)) | pest or weed control at 62.5 g/ha ([12]; 62.5 g ai/ha, 100=total damage to plant, 0=no damage to plant, read-out: Morningglory, Ivy-leaved damage rating) | pest or weed control at 250 g/ha ([12]; 250 g ai/ha, read-out: Morningglory, Ivy-leaved damage rating (100=total damage to plant; 0=no damage to plant))
